Measured values as given in US20150352108A1, “AMINO-PYRIMIDINE COMPOUNDS AS INHIBITORS OF TBK1 AND/OR IKK EPSILON” (Alzheimer's Institute of America, priority 2009, published 2015).
Like-named read-outs stand apart in the source and are kept apart here.

Legend:
TBK1 = molecular target: T1, TBK1 (Homo sapiens, UniProt Q9UHD2); assay: In-vitro TBK1 kinase assay ([γ33]ATP filter-plate); type: biochemical
T1 construct: His-tag; made in house; host or cells: Sf9 insect cells
T1 sequence (Q9UHD2 1-729): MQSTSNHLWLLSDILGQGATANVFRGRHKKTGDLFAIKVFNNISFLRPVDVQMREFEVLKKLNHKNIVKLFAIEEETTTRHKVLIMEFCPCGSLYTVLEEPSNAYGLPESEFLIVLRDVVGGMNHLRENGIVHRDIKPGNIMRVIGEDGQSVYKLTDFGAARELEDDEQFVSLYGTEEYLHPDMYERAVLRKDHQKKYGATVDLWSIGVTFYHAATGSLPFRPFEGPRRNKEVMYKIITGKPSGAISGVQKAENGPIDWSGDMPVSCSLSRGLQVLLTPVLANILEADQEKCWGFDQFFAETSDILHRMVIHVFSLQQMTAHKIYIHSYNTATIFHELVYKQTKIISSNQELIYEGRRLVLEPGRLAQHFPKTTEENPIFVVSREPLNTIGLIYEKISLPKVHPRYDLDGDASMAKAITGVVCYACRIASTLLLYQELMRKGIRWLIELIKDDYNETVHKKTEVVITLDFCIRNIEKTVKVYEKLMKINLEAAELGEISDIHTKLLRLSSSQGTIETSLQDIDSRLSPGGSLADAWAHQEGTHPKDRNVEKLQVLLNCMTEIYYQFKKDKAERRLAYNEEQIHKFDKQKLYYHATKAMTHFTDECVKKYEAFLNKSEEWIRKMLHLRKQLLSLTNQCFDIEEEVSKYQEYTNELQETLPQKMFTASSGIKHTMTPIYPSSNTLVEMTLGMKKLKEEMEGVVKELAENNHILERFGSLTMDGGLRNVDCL
In short: (§1)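 Phosphorylation of casein or myelin basic protein was counted by P-81 filter capture after 30-45 min reactions stopped with phosphoric acid, with counts normalized to DMSO after background subtraction. ATP was twice Km: 60 μM for TBK1 and 32 μM for IKKε, plus [γ33]ATP. Sf9-expressed His-tag enzymes were used at normal/sensitized levels of 0.1/0.02 μg/ml (TBK1) and 0.1/0.015 μg/ml (IKKε).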

IKKε = molecular target: T2, IKKε (Homo sapiens, UniProt Q14164); assay: In-vitro IKKε kinase assay ([γ33]ATP filter-plate); type: biochemical
T2 construct: His-tag; made in house; host or cells: Sf9 insect cells
T2 sequence (Q14164 1-716): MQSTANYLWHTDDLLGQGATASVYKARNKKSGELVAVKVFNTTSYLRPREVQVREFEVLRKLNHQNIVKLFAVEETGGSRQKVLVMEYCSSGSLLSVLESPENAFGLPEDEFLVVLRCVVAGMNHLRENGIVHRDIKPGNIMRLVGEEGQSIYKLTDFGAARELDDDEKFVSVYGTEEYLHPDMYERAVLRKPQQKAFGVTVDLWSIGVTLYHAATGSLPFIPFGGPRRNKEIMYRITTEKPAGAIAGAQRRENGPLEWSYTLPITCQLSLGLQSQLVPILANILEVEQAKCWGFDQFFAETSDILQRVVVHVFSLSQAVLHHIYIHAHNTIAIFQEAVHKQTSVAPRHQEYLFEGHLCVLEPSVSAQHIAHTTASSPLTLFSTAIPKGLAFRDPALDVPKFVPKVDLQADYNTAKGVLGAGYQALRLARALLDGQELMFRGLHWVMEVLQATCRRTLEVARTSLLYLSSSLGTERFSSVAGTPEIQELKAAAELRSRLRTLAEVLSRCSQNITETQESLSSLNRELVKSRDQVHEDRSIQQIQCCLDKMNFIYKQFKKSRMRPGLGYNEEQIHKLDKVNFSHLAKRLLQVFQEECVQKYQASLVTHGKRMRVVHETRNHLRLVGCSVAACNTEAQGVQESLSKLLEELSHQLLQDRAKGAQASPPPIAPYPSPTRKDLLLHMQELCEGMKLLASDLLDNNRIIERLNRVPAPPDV
In short: as §1

[1] = system: IKKε-mediated phosphorylation of IRF3; assay: In-situ phosphorylation of IRF3 (pIRF3 Ser396 ELISA) in HEK293T cells cotransfected with IRF3 and IKKε; type: cell-based; conditions: Homo sapiens, HEK-293T
Method: HEK293T cells were cotransfected in a 10-cm dish with IRF3 and IKKε expression plasmids using Lipofectamine 2000 (Invitrogen, Carlsbad, Calif.). The following day, cells were replated at 20,000 per well in 96-well plates and treated with test compounds (compounds according to Formula I) for 20 hours. Cell lysates were prepared and analyzed using an ELISA for phospho-Ser396 (anti-IRF3 capture antibody, Santa Cruz Biotechnology, Inc., Santa Cruz, Calif.; anti-p-Ser396 IRF3 detection antibody, Cell Signaling, Danvers, Mass.). pIRF3 levels in compound treated cells were normalized to DMSO treated cells (no compound). Cell viability was assayed in a parallel set of plates to monitor cytotoxic effects of the test compounds (CellTiter-Glo, Promega, Inc., Madison, Wis.). TBK1 activity was tested by Western blotting using a phospho-specific IRF7 antibody. Similar to above, HEK293T cells were transfected with IRF7 and TBK1 expression plasmids. Cells were seeded in 12-well plates at 150,000 per well and treated overnight with test compounds. Protein lysates were prepared and processed for Western blotting followed by detection using a phosphor-Ser477/Ser479 IRF7 antibody (BD Biosciences, San Jose, Calif.)

[2] = text bins, read-out: IC50 for inhibition of the kinase activity of TBK1
[3] = text bins, read-out: IC50 for inhibition of the kinase activity of IKKε
[4] = HEK293T cells in culture, Table 3, read-out: pIRF3 ELISA IC50
[5] = HEK293T cells, 20 hours, text bins, read-out: IC50 for inhibition of the in-situ IKKε-mediated phosphorylation of IRF3

Compound | IC50 (TBK1; Table 3, read-out: TBK1 IC50) [nM] | IC50 (TBK1; [2]) [nM] | IC50 (IKKε; Table 3, read-out: IKKε IC50) [nM] | IC50 (IKKε; [3]) [nM] | IC50 [1, 4] [nM] | IC50 [1, 5] [nM]
C[C@@H](O)C(=O)Nc1cccc(Nc2nccc(-c3ccc(OC4CCOCC4)c(C#N)c3)n2)c1 [compound 659, (2R)-N-[3-({4-[3-Cyano-4-(tetrahydro-2H-pyran-4-yloxy)phenyl]pyrimidin-2-yl}amino)phenyl]-2-hydroxypropanamide] | – | – | – | < 5 | – | 100 to 250
CN(C)CCN(C)c1cccc(Nc2nccc(-c3ccc(OC4CCOCC4)c(C#N)c3)n2)c1 [compound 661] | – | – | – | < 5 | – | < 100
Cc1cn(Cc2cccc(Nc3nccc(-c4ccc(O[C@@H]5CCN(C(=O)CO)C5)c(C#N)c4)n3)c2)cn1 [compound 662, 2-{[(3R)-1-(Hydroxyacetyl)pyrrolidin-3-yl]oxy}-5-[2-({3-[(4-methyl-1H-imidazol-1-yl)methyl]phenyl}amino)pyrimidin-4-yl]benzonitrile] | – | – | – | < 5 | – | < 100
COc1cc(Nc2nccc(-c3ccc(OC4CCOCC4)c(C#N)c3)n2)ccc1-n1cnnn1 [compound 664, 5-(2-{[3-Methoxy-4-(1H-tetrazol-1-yl)phenyl]amino}pyrimidin-4-yl)-2-(tetrahydro-2H-pyran-4-yloxy)benzonitrile] | – | – | – | < 5 | – | < 100
CN(C)C1CCN(C(=O)Nc2cccc(Nc3nccc(-c4ccc(OC5CCOCC5)c(C#N)c4)n3)c2)C1 (stereo not shown) [compound 667, N-[3-({4-[3-Cyano-4-(tetrahydro-2H-pyran-4-yloxy)phenyl]pyrimidin-2-yl}amino)phenyl]-3-(dimethylamino) pyrrolidine-1-carboxamide] | – | – | – | < 5 | – | < 100
COC1CN(C(=O)Nc2cccc(Nc3nccc(-c4ccc(OC5CCOCC5)c(C#N)c4)n3)c2)C1 [compound 668, N-[3-({4-[3-Cyano-4-(tetrahydro-2H-pyran-4-yloxy)phenyl]pyrimidin-2-yl}amino)phenyl]-3-methoxyazetidine-1-carboxamide] | – | – | – | < 5 | – | 250 to 500
N#Cc1cc(-c2ccnc(Nc3cccc(N4CCC[C@H]4CO)c3)n2)ccc1O[C@@H]1CCN(C(=O)CO)C1 [compound 669, 2-{[(3R)-1-(Hydroxyacetyl)pyrrolidin-3-yl]oxy}-5-[2-({3-[(2S)-2-(hydrfoxymethyl)pyrrolidin-1-yl]phenyl}amino)pyrimidin-4-yl]benzonitrile] | – | – | – | < 5 | – | 100 to 250
N#Cc1cc(-c2ccnc(Nc3ccc(F)c(OC4CCNC4)c3)n2)ccc1OCC1CC1 (stereo not shown) [compound 670, 2-(Cyclopropyl-methoxy)-5-(2-{[4-fluoro-3-(pyrrolidin-3-yloxy)phenyl]amino}pyrimidin-4-yl)benzonitrile] | – | – | – | < 5 | – | 250 to 500

Second part, the molecule after the results:

IC50 (TBK1; Table 3, read-out: TBK1 IC50) [nM] | IC50 (TBK1; [2]) [nM] | IC50 (IKKε; Table 3, read-out: IKKε IC50) [nM] | IC50 (IKKε; [3]) [nM] | IC50 [1, 4] [nM] | IC50 [1, 5] [nM] | Compound
0.4 | < 10 | 1.1 | < 5 | 71.9 | < 100 | COc1cc(Nc2nccc(-c3ccc(OC4CCOCC4)c(C#N)c3)n2)ccc1C(=O)NCCN(C)C [Example 2, 4-({4-[3-cyano-4-(tetrahydero-2H-pyran-4-yloxy)phenyl]pyrimidin-2-yl}amino)-N-[2-(dimethylamino)ethyl]-2-methoxybenzamide]
0.2 | < 10 | 2.8 | < 5 | 280 | 250 to 500 | CN(C)CCCNS(=O)(=O)c1ccc(Nc2nccc(-c3ccc(OC4CCOCC4)c(C#N)c3)n2)cc1 [Example 3, 4-({4-[3-cyano-4-(tetrahydro-2H-pyran-4-yloxy)phenyl]pyrimidin-2-yl}amino)-N-[3-(dimethylamino)propyl] benzenesulfonamide]
– | < 10 | – | < 5 | – | 100 to 250 | Cc1cc(Nc2nccc(-c3ccc(OC4CCOCC4)c(C#N)c3)n2)ccc1N1CCOCC1 [Example 18, 5-(2-{[3-methyl-4-(morpholin-4-yl)phenyl]amino}pyrimidin-4-yl)-2-(tetrahydro-2H-pyran-4-yloxy)benzonitrile]
– | < 10 | – | < 5 | – | 250 to 500 | CN1CCN(C(=O)Nc2ccc(Nc3nccc(-c4ccc(OC5CCOCC5)c(C#N)c4)n3)cc2)CC1 [Example 20, N-[4-({4-[3-cyano-4-(tetrahydro-2H-pyran-4-yloxy)phenyl]pyrimidin-2-yl}amino)phenyl]-4-methylpiperazine-1-carboxamide]
– | < 10 | – | < 5 | – | < 100 | COc1cc(Nc2nccc(-c3ccc(OC4CCOCC4)c(C#N)c3)n2)ccc1OCCOCCN [Example 21, 5-[2-({4-[2-(2-aminoethoxy)ethoxy]-3-methoxyphenyl}amino)pyrimidin-4-yl]-2-(tetrahydro-2H-pyran-4-yloxy)benzonitrile]
– | – | – | < 5 | – | 250 to 500 | Cc1ccc(Nc2nccc(-c3ccc(O[C@@H]4CCN(C(=O)CO)C4)c(C#N)c3)n2)cc1C [compound 643, 5-{2-[(3,4-Dimethylphenyl)amino]pyrimidin-4-yl}-2-{[(3R)-1-(hydroxyacetyl)pyrrolidin-3-yl]oxy}benzonitrile]
– | – | – | < 5 | – | < 100 | COCC(=O)Nc1cccc(Nc2nccc(-c3ccc(OC4CCOCC4)c(C#N)c3)n2)c1 [compound 647, N-[3-({4-[3-Cyano-4-(tetrahydro-2H-pyran-4-yloxy)phenyl]pyrimidin-2-yl}amino)phenyl]-2-methoxyacetamide]
– | – | – | < 5 | – | < 100 | Cc1cn(Cc2cccc(Nc3nccc(-c4ccc(OC5CCOCC5)c(C#N)c4)n3)c2)cn1 [compound 653, 5-[2-({3-[(4-Methyl-1H-imidazol-1-yl)methyl]phenyl}amino)pyrimidin-4-yl]-2-(tetrahydro-2H-pyran-4-yloxy)benzonitrile]
– | – | – | < 5 | – | 250 to 500 | C[C@H](O)C(=O)N1CCC(Oc2ccc(-c3ccnc(Nc4ccc(F)c(OCCN)c4)n3)cc2C#N)CC1 [compound 655]
– | – | – | < 5 | – | < 100 | CC(=O)Nc1cccc(Nc2nccc(-c3ccc(OC4CCOCC4)c(C#N)c3)n2)c1 [compound 656, N-[3-({4-[3-Cyano-4-(tetrahydro-2H-pyran-4-yloxy)phenyl]pyrimidin-2-yl}amino)phenyl] acetamide]
– | – | – | < 5 | – | 250 to 500 | COC1CN(Cc2ccc(Nc3nccc(-c4ccc(O[C@@H]5CCN(C(=O)CO)C5)c(C#N)c4)n3)cc2)C1 [compound 658, 2-{[(3R)-1-(Hydroxyacetyl)pyrrolidin-3-yl]oxy}-5-[2-({4-[(3-methoxyazetidin-1-yl)methyl]phenyl}amino)pyrimidin-4-yl]benzonitrile]
